Consider six molecules from patent US9783852B2, “Method for assessing embryotoxicity” (priority 2008, dated 2017).

Values after ≈ are worked out from the molar mass of the structure shown. Like-named read-outs stand apart in the source and are kept apart here.

In one data set the test system is Hand1-ES cells. Put plainly: Hand1-ES cell luciferase reporter test during myocardial differentiation. The settings on record: for Hand1-ES ID50 (50% inhibitory concentration for differentiation): concentration at which 50% of the luciferase activity is inhibited, day 6, medium for myocardial differentiation. As for the experimental part:
Hand1-ES cell line was cultured while maintaining an undifferentiated state in DMEM medium containing 15% heat inactivated fetal bovine serum supplemented with LIF containing 100 μg/mL G418. The undifferentiated Hand1-ES cells were dispersed using 0.25% trypsin/1 mM EDTA, and thereafter, the cells were suspended in DMEM medium containing 15% heat inactivated fetal bovine serum. Residual trypsin was removed by centrifugation and suction of the supernatant, and the cells were suspended in DMEM medium containing 15% heat inactivated fetal bovine serum not containing LIF (hereinafter, medium for myocardial differentiation). Thereafter, the number of cells was counted using a small amount of the cell solution, and a cell suspension (medium for myocardial differentiation) was prepared so as to have a cell number of 15,000 cells/mL. The prepared cell suspensions were added with only solvent such as PBS(−) or DMSO as a solvent control or added with a test chemical prepared by diluting with solvent into several levels, and thereafter, each cell suspension was seeded in a nonadherent U-bottom 96-well plate in a volume of 50 μL, and the culture was performed for 3 days. On day 3, 50 μL of the medium for myocardial differentiation supplemented with the test chemical again prepared was added, and the suspension culture was continued for 3 days. On day 6, 100 μL of a luciferase luminescent reagent, Steady-Glo (Promega), was added to each well and shaken for 30 minutes, and thereafter, the total amount was transferred to a 96-well white plate, and the luciferase activity was measured with a TopCount NXT luminescence detection counter (Packard Japan). The obtained activity values were averaged and tallied for the solvent control group and every concentration of the test chemical.
On the technique in general: A reporter such as luciferase makes a cellular process visible.

For data set [1], the system named is balb/c 3T3 cells cloneA31. As to the kind of experiment: 3T3 cell proliferation test (CellTiter-Glo). In kind it is cell-based. The settings on record: Mus musculus, BALB/c3T3, 144 h, read-out: 3T3 IC50 (50% inhibitory concentration for cell growth). As for the experimental part:
In addition, using balb/c 3T3 cells cloneA31 obtained from ATCC (hereinafter, 3T3 cells), the effects of each test chemical on cell proliferation were evaluated by the following method. The 3T3 cells cultured in DMEM medium containing 10% heat inactivated fetal bovine serum, 2 mM glutamine, penicillin and streptomycin (medium for 3T3) in an incubator at 37° C. and 5% CO2 were dispersed using 0.25% trypsin/1 mM EDTA, and thereafter, the cells were suspended in the medium for 3T3. Residual trypsin was removed by centrifugation and suction of the supernatant, and the cells were suspended in the medium for 3T3. Thereafter, the number of cells was counted using a small amount of the cell solution, and a cell suspension was prepared so as to have a cell number of 10,000 cells/mL. The prepared cell suspensions were added with only solvent such as PBS(−) or DMSO as a solvent control or added with a test chemical prepared by diluting with solvent into several levels. Thereafter, each cell suspension was seeded in a white 96-well plate for cell culture in a volume of 50 μL, and the culture was performed for 3 days. On day 3, 50 μL of the medium for 3T3 supplemented with the test chemical again prepared was added, and the culture was continued for 3 days. On day 6, the supernatant of each well was removed by suction, then, each well was supplemented with the solution in a CellTiter-Glo™ Luminescent Cell Viability Assay kit (Promega) and shaken for 30 minutes, and thereafter, the activity was measured with a TopCount NXT luminescence detection counter. […] The activity values obtained from each test of the Hand1-ES cells and the 3T3 cells were averaged and tallied for the solvent control group and every concentration of the test chemical, and thereafter, a relative value of each concentration was calculated using the average value of the solvent control group as 100%.
For orientation: In ATP-based viability assays light output follows the ATP content of the culture.

For data set [2] the following is noted: known classification of the test chemicals used; cited from earlier work.
[3] abbreviates: day 6, CellTiter-Glo luminescence.

For `O=c1[nH]c(=O)n([C@H]2C[C@H](O)[C@@H](CO)O2)cc1Br` [5-bromo-2′-deoxyuridine], in the data set with Hand1-ES cells, the “Embryotoxicity assessment from comparing Hand1-ES ID50 with 3T3 IC50” value (“Embryotoxicity assessment” for short) is listed as “has embryotoxicity” and the “Hand1-ES ID50 (50% inhibitory concentration for differentiation)” value is 0.12 µg/mL. In addition, the IC50 in data set [1] (setting [3]) was found to be 0.8 µg/mL (≈ 2.61 µM). Further, the in vivo embryotoxicity result in data set [2] is given as “positive”.

With `O=c1[nH]cc(F)c(=O)[nH]1` [5-fluorouracil], in the data set with Hand1-ES cells, the “Embryotoxicity assessment” value is on record as “has embryotoxicity” and the “Hand1-ES ID50 (50% inhibitory concentration for differentiation)” value was 0.02 µg/mL. The IC50 in data set [1] (setting [3]) turned out to be 0.16 µg/mL (≈ 1.23 µM). For the same molecule, in data set [2], the in vivo embryotoxicity entry is “positive”.

For `C=CC(N)=O` [acrylamide], the “Embryotoxicity assessment” value with Hand1-ES cells (ID50<IC50 = embryotoxic, ID50 larger than IC50 = not shown) was “embryotoxicity is not shown”. In addition, the “Hand1-ES ID50 (50% inhibitory concentration for differentiation)” value in the data set on Hand1-ES cells is 85.3 µg/mL. Besides, the IC50 in data set [1] (setting [3]) is 54 µg/mL (≈ 760 µM). In addition, in data set [2], the in vivo embryotoxicity entry is reported as “negative”.

With `O=C1O[C@H]([C@@H](O)CO)C(O)=C1O` [ascorbic acid], in the data set with Hand1-ES cells, the “Embryotoxicity assessment” value is “embryotoxicity is not shown” and the “Hand1-ES ID50 (50% inhibitory concentration for differentiation)” value is 28.3 µg/mL. Moreover, in data set [1], the IC50 was 2 µg/mL (≈ 11.4 µM).

Turning to `C[C@@H]1C[C@H]2[C@@H]3CCC4=CC(=O)C=C[C@]4(C)[C@@]3(F)[C@@H](O)C[C@]2(C)[C@@]1(O)C(=O)CO` [dexamethasone], in the data set with Hand1-ES cells, the “Embryotoxicity assessment” value was “has embryotoxicity” and the “Hand1-ES ID50 (50% inhibitory concentration for differentiation)” value was found to be 15.6 µg/mL. The IC50 in data set [1] (setting [3]) was found to be 36.7 µg/mL (≈ 93.5 µM). Also, in data set [2], the in vivo embryotoxicity result is reported as “positive”.

Regarding `NC(=O)NO` [hydroxyurea], in the data set with Hand1-ES cells, the “Embryotoxicity assessment” value is given as “has embryotoxicity” and the “Hand1-ES ID50 (50% inhibitory concentration for differentiation)” value turned out to be 2.5 µg/mL. In data set [1] (setting [3]), the IC50 came out at 4.7 µg/mL (≈ 61.8 µM).
